In patent US20160061841A1, “NRF2-BASED CANCER TREATMENT AND DETECTION METHODS AND USES” (CanBas Co., Ltd., priority 2014, published 2016):
Entries after “also recorded” stand apart in the source; their conditions may differ. Where two headings read alike, the source gives them in different places.

Assays:
[1] = tested on: H1703 Control (Ctrl)-sh and Nrf2-sh sub-lines; assay: Cell cycle distribution after SFN, CDDP and CBP501 in H1703 Ctrl-sh and Nrf2-sh sub-lines; format: cell-based, Human; conditions: SFN 24 h prior to 1 h CDDP (2.5 μg/ml)/CBP501 (1 μM)
Description: FIGS. 4C, 4D show Analysis of cell cycle distribution changes by using Flow-cytometry (n=4). SFN was subjected 24h to H1703 Control (Ctrl)-sh and Nrf2-sh sub-lines prior to lh treatment of CDDP (2.5 μg/m1)/CBP501 (1 μM). (FIG. 4C) Whole cell cycle distribution. (FIG. 4D) G2-M phase. An asterisk indicates statistical significance (TTEST; p<0.005). Error bars signify standard deviations as determined from four flowcytometric analyses.
Cell cycle analysis. Cells were plated in 24-well plates and incubated for 24 hours. The cells were treated with or without CDDP plus or minus CBP501 at the indicated concentration for the indicated times. The cells were harvested and stained with Krishan's solution (0.1% sodium citrate, 50 μg/ml propidium iodide, 20 μg/ml RNase A, 0.5% NP-40). Stained cells were analyzed by FACSCalibur (Becton Dickinson, Franklin Lakes, N.J.) using CELLQuest software (Becton Dickinson).
Lentivirus infection. Nrf2 shRNA lentivirus particles and Control shRNA lentivirus particles were purchased from SantaCruz. Lentivirus infection was performed according to manufacturer's instructions. Cells (50% confluence) were treated with 5 μg/ml Polybrene (SantaCruz) prior to virus infection. One day after addition of virus, the cells were transferred to fresh medium and cells were selected by treatment with Puromycin (SantaCruz). […]

Nrf2 = conditions: Western blot

C[S+]([O-])CCCCN=C=S (stereo not shown) [SFN, Sulforaphane]
Effect of SFN on CBP501's effect (cell cycle distribution, G2-M) ([1]; H1703 Nrf2 knock-down): the effect of SFN was abrogated | Effect of SFN on CBP501's effect (cell cycle distribution, G2-M) ([1]; H1703 control shRNA): attenuated CBP501's effect; also recorded: cancels the effect of CBP501 | Nrf2 protein levels (Nrf2; H1703 cells transfected with Nrf2 shRNA): did not cause a similar increase | Nrf2 protein levels (Nrf2; H1703 cells transfected with control shRNA): increase in a dose dependent manner
